Experimental data reported in patent publication EP4696689A1, “SALT FORM AND CRYSTAL FORM OF CHIRAL HETEROCYCLIC COMPOUND HAVING HEDGEHOG PATHWAY ANTAGONIST ACTIVITY” (Suzhou Kintor Pharmaceuticals, Inc., priority 2023, dated 2024).

How the values were obtained:
[1] = SCID tumor-bearing mice, i.g. BID × 3 days
Experimental: During routine examinations, animals were monitored for tumor growth, activity level, food intake, water consumption, weight gain or loss, eye, fur, and any other abnormal behaviors. Animal deaths and clinical abnormalities were recorded.

Gli1 Gene = experiment: Gli1 mRNA expression in tumor tissues (RT-qPCR), Shh signaling pathway analysis; type: in vivo, CB-17/SCID mice; conditions: 10 mg/kg i.g. BID × 3 days; tumor tissue 2 hours after last administration; GAPDH internal reference
From the text: Table 7-1 The Grouping and Drug Administration Plan
Primary tumor cells were extracted from Math1-Cre/Ptch1 ^C/C mice with spontaneous medulloblastoma and subcutaneously inoculated into CB-17/SCID mice to establish a xenograft model of medulloblastoma.
CB-17/SCID mice were subcutaneously injected with primary extracted medulloblastoma cells. After 3-4 weeks, a subset of mice developed tumors with volumes ranging from 150 to 300 mm^3.
From these mice, 25 tumor-bearing mice with uniform tumor sizes (with CV < 30%, CV = SD/Mean) were selected and randomly divided into 5 experimental groups (Vehicle, GDC-0449-10 mg/kg, Compound A-10 mg/kg, Compound A-3 mg/kg, Compound A-1 mg/kg) according to Table 2. Each group consisted of 5 mice per cage. Administration began on the day after grouping. The administration period was 3 days, with a frequency of BID. Tumor tissues were collected 2 hours after the last administration, and the mRNA expression level of the Glil gene in the tumor tissues was analyzed by RT-qPCR.
The tumor tissues were lysed by RNAiso Plius (TaKaRa, 108-95-2) to extractand RNA was then extracted using chloroform extraction and isopropanol precipitation methods. Subsequently, the mRNA level of the Glil gene was detected using a real-time fluorescence quantitative PCR instrument (ABI 7500), with GAPDH serving as the internal reference for quantitative analysis.
Experimental data in all tables are presented as "mean ± standard deviation" with error bars in figures representing standard error of the mean (SEM). Student's t-test was used to compare statistical differences in Glil gene mRNA expression levels in tumor tissues among treatment groups. All data were analyzed using GraphPad Prism 5.0. P-value <0.05 was considered statistically significant. ***, P<0.001; ##, P<0.01.
Glil is a target gene of the Hedgehog signaling pathway, and its mRNA expression level reflects the activation status of the hedgehog signaling pathway.

in vivo = conditions: male, C57, mouse, plasma, po, 10 mg/kg
Experimental: The collected plasma samples were subjected to a protein precipitation method by using an organic reagent according to the following method to extract test article in the plasma, and the extracted sample was subjected to quantitative concentration analysis through the LC-MS/MS.
Meanwhile, an accompanying standard curve and quality control samples were prepared for quantitative analysis.
The fumarate salt form F of the compound of formula (I) Group: 50 µL of plasma at each time point was taken, 400 µL of acetonitrile was added, vortex mixing and centrifugation was performed at 10000 rpm for 10 min, and a 200 µL supernatant for LC-MS/MS analysis was taken. Meanwhile, an accompanying standard curve and quality control samples were prepared for quantitative analysis.
According to the plasma drug concentration data obtained through analysis, the main pharmacokinetic parameters were calculated according to the non-atrioventricular model by using Kinetic software (Version 5.0).

[2] = body weight of tumor-bearing mice during treatment
From the text: (§2) 30 mice with uniform tumor sizes (Coefficient of Variation, CV < 30%, CV = Standard Deviation / Mean) were selected from this group. These mice were selected and randomly divided into five experimental groups according to Table 6-2, with six mice in each group and one group per cage. Drug administration began the day after grouping and lasted for 17 days with a frequency of twice daily (BID). The drug was discontinued after 17 days to observe tumor changes.
(§3) During routine examinations, animals were monitored for tumor growth, activity level, food intake, water consumption, weight gain or loss, eye, fur, and any other abnormal behaviors. Animal deaths and clinical abnormalities were recorded. Tumor volume (TV) was measured twice weekly using calipers and calculated using the formula: TV = 0.5a × b^2, wherein a is the longest diameter of the tumor and b is the shortest diameter. Body weight was recorded twice weekly, concurrently with tumor volume measurements.
(§4) If the animals' weight subsequently recovered to within a 10% loss compared to baseline, whether to continue the administration was based on the animals' condition. The in vivo experimental for an individual animal or the entire group would be terminated under the following conditions. The animals will be euthanized before death or coma. • ➢ If the animals' health condition deteriorated continuously, causing persistent suffering and is unable to eat or drink. • ➢ If the animal became emaciated, with a body weight loss exceeding 20% compared to the initial administration. • ➢ If the tumor volume of an individual mouse exceeded 3000 mm^3 or the mean tumor volume of the entire group exceeded 2000 mm^3.

[3] = system: primary extracted medulloblastoma cells; experiment: antitumor efficacy against medulloblastoma, subcutaneous xenograft model;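 also: male CB-17/SCID mice bearing subcutaneous tumors, randomized at 150-300 mm^3, tumor volume from caliper diameters as 0.5 × longest × shortest squared, measured twice weekly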; type: in vivo, CB-17/SCID mice; conditions: 10 mg/kg i.g. BID, 17 days
Experimental: 60 male CB-17/SCID mice (aged 6-8 weeks) were purchased from Shanghai SLAC Laboratory Animal Co., Ltd. Animals were housed in individually ventilated cages (IVCs), with five mice per cage. Housing conditions were as follows: temperature was maintained at 20-26°C; humidity was 30-70%; 12 hours of light and 12 hours of darkness.
as §2, §3, §4
All data were analyzed using GraphPad Prism 5.0. P value < 0.05 was considered statistically significant.

[4] = hygroscopicity evaluation by dynamic vapor sorption (DVS); type: physicochemical
Experimental: The DVS curves were collected on a DVS Intrinsic from SMS (Surface Measurement Systems).The relative humidity at 25°C was corrected with the deliquescence points of LiCl, Mg (NO3)2 and KCl.

[5] = solid state stability (XRPD, HPLC, chiral purity); type: physicochemical
Experimental: The purity test, the dynamic solubility and the stability test are tested by the Agilent 1260/1100 high performance liquid chromatograph, and the analysis conditions and chiral purity test analysis conditions of the high performance liquid chromatography test are respectively as follows.
After placing the amorphous free base and fumarate crystal form F of the compound of formula (I) at 25°C/60% RH and 40°C/75% RH for 1 week, the physical and chemical stability of the sample is detected by XRPD and HPLC (at the same time the chiral purity of the sample is tested). […] Table 4-2 Solid Stability Evaluation Summary

[6] = dynamic solubility in water and three biological solvents; type: physicochemical; conditions: 37 °C, thermodynamic from solid
Experimental: Finally, the volume is fixed with purified water.
(§1) 0.17 g of sodium dihydrogen phosphate (NaH2PO4, anhydrous), 0.021 g of sodium hydroxide and 0.31 g of sodium chloride were weighed into a 50 mL volumetric flask respectively, about 48 mL of purified water was added for dissolution, the pH was adjusted to exactly 6.5 with 1M hydrochloric acid or 1M sodium hydroxide, and the volume was fixed with purified water. 0.11 g of SIF powder was then added, stirred and sonicated to completely dissolve the powder. The solution can be used only after being placed at room temperature for two hours to reach equilibrium.
as §1, with “0.41 mL” for “0.17 g”, “glacial acetic acid, 0.20” for “sodium dihydrogen phosphate (NaH2PO4, anhydrous), 0.021”, “0.59” for “0.31”, “respectively, and” for “respectively,”, “5.0” for “6.5”, “0.56” for “0.11”
The solubility results of the two samples in SGF, FASSIT and FeSSIF are similar. […] Table 4-1 Summary of the dynamic solubility test results

[7] = rats, P.O., 10 mg/kg; data from WO2018006756A1 (B1); cited from earlier work
[8] = pH 1.8, simulated gastric fluid

CS(=O)(=O)c1ccc(C(=O)Nc2ccc(Cl)c(-c3ccccn3)c2)c(Cl)c1 [GDC-0449, reference compound]
abnormal behaviors or animal deaths during the administration period [1]: no abnormal behaviors or animal deaths
mRNA Expression Level of Glil Gene (Gli1 Gene): 0.194 ± 0.074
AUC(0-inf) (in vivo): 6650 ng·h/mL
AUC(0-t) (in vivo): 6040 ng·h/mL
Cmax (in vivo): 1270 ng/mL
MRT (in vivo): 8.33 h
Tmax (in vivo): 0.63 h
half-life (in vivo): 8.43 h
Mean Body Weight at Day 0 ([2]; 10 mg/kg group, before treatment): 23.7 ± 2.1 g
Body Weight Change Rate (%) ([2]; 10 mg/kg i.g. BID, 17 days): 9.3%
Mean Body Weight at Dosing Endpoint ([2]; 10 mg/kg i.g. BID, 17 days): 25.9 ± 2.0 g
impact on the body weight of tumor-bearing mice during the treatment period ([2]; administered doses, i.g. BID × 17 days): no significant impact
T/C (%) [3]: 32.49%
TGI (%) ([3]; TGI = [1 - RTV(treatment group) / RTV(control group)] × 100%): 67.51%

Cc1cnc(-c2cc(N3CCc4nc(N5CCC(O)CC5)ncc4[C@H]3C)ncc2Cl)c(C)c1 [compound of formula (I), (R)-1-(6-(5'-chloro-3,5-dimethyl-[2,4'-bipyridin]-2'-yl)-5-methyl-5,6,7,8-tetrahydropyrido[4,3-d]pyrimidin-2-yl)piperidin-4-ol]
crystal transformation or crystal form change after the DVS test (XRPD) ([4]; 0% RH-95% RH-0% RH, 25°C): no crystal transformation or crystal form change
Water adsorption (25°C/80%RH) ([4]; 25°C/80%RH): 2.4
moisture adsorption ([4]; 25°C/80%RH): 2.4%
Chiral purity (%) ([5]; 25°C/60%RH_1w): 98.7%
Purity (Area%) ([5]; 25°C/60%RH_1w): 99.0 Area%
Purity/Initial purity (%) ([5]; 25°C/60%RH_1w): 100.0%
Chiral purity (%) ([5]; 40°C/75%RH_1w): 98.7%
Purity (Area%) ([5]; 40°C/75%RH_1w): 98.9 Area%
Purity/Initial purity (%) ([5]; 40°C/75%RH_1w): 99.9%
Chiral purity (%) ([5]; Start): 98.5%
Purity (Area%) ([5]; Start): 99.0 Area%
Solid State Stability ([5]; summary, 25°C/60% RH and 40°C/75% RH for 1 week): good physical and chemical stability
solubility at 1 h [6, 8]: 4100 µg/mL
solubility at 2 h [6, 8]: 3900 µg/mL
solubility at 4 h [6, 8]: 4000 µg/mL
solubility at 24 h [6, 8]: 3900 µg/mL
solubility at 1 h ([6]; pH 5, fessif): 3000 µg/mL
solubility at 2 h ([6]; pH 5, fessif): 3000 µg/mL
solubility at 4 h ([6]; pH 5, fessif): 2900 µg/mL
solubility at 24 h ([6]; pH 5, fessif): 2900 µg/mL
solubility at 1 h ([6]; pH 6.5, fassif): 210 µg/mL
solubility at 2 h ([6]; pH 6.5, fassif): 200 µg/mL
solubility at 4 h ([6]; pH 6.5, fassif): 240 µg/mL
solubility at 24 h ([6]; pH 6.5, fassif): 220 µg/mL
solubility at 1 h ([6]; water): 13 µg/mL
solubility at 2 h ([6]; water): 16 µg/mL
solubility at 4 h ([6]; water): 18 µg/mL
solubility at 24 h ([6]; water): 30 µg/mL
F% [7]: 100%
